Experimental findings from ChEMBL document CHEMBL3046015, “Structure-dependent phytotoxicity of catechins and other flavonoids: flavonoid conversions by cell-free protein extracts of Centaurea maculosa (spotted knapweed) roots” (J Agric Food Chem, 2003) are described below.

For one data set, the system named is Arabidopsis thaliana. In words: Phytotoxicity in Arabidopsis thaliana assessed as increase in mortality at 250 ug/mL measured on day 14 relative to untreated control. Type of data set: organism-based. As to conditions: in vivo.
The subject of data set [1] is Triticum aestivum. In words: Phytotoxicity in Triticum aestivum (wheat) assessed as inhibition of seed germination at 250 ug/mL measured on day 14 relative to untreated control. The conditions noted are these: in vivo. The format is organism-based.
The subject of data set [2] is Linaria genistifolia subsp. dalmatica. In words: Phytotoxicity in Linaria genistifolia subsp. dalmatica assessed as inhibition of seed germination at 250 ug/mL measured on day 14 relative to untreated control. The format is functional, organism-based.
The test system of data set [3] is Bassia scoparia. Description: Phytotoxicity in Bassia scoparia assessed as inhibition of seed germination at 250 ug/mL measured on day 14 relative to untreated control. Type of data set: functional, organism-based.
The test system of data set [4] is Centaurea diffusa. In words: Phytotoxicity in Centaurea diffusa assessed as inhibition of seed germination at 250 ug/mL measured on day 14 relative to untreated control. The format is functional, organism-based.
The subject of data set [5] is Centaurea maculosa. In words: Phytotoxicity in Centaurea maculosa assessed as increase in mortality at 250 ug/mL measured on day 14 relative to untreated control. Type of data set: functional, organism-based.
Data set [6] deals with Bassia scoparia. Description: Phytotoxicity in Bassia scoparia assessed as increase in mortality at 250 ug/mL measured on day 14 relative to untreated control. Type of data set: functional, organism-based.
In data set [7] the test system is Centaurea diffusa. In words: Phytotoxicity in Centaurea diffusa assessed as increase in mortality at 250 ug/mL measured on day 14 relative to untreated control. Type of data set: functional, organism-based.
Data set [8] deals with Solanum lycopersicum. In words: Phytotoxicity in Solanum lycopersicum (tomato) assessed as increase in mortality at 250 ug/mL measured on day 14 relative to untreated control. As to conditions: in vivo. Type of data set: organism-based.
In data set [9] the test system is Triticum aestivum. Description: Phytotoxicity in Triticum aestivum (wheat) assessed as increase in mortality at 250 ug/mL measured on day 14 relative to untreated control. Type of data set: functional, organism-based.
Data set [10] has as its system Centaurea maculosa. In words: Phytotoxicity in Centaurea maculosa assessed as inhibition of seed germination at 250 ug/mL measured on day 14 relative to untreated control. Type of data set: functional, organism-based.
The test system of data set [11] is Linaria genistifolia subsp. dalmatica. Description: Phytotoxicity in Linaria genistifolia subsp. dalmatica assessed as increase in mortality at 250 ug/mL measured on day 14 relative to untreated control. Type of data set: functional, organism-based.
The subject of data set [12] is Centaurea maculosa. In words: Phytotoxicity in Centaurea maculosa assessed as inhibition of shoot differentiation at 250 ug/mL measured on day 14 relative to untreated control. Type of data set: functional, organism-based.
Data set [13] concerns Linaria genistifolia subsp. dalmatica. Description: Phytotoxicity in Linaria genistifolia subsp. dalmatica assessed as inhibition of root differentiation at 250 ug/mL measured on day 14 relative to untreated control. Type of data set: functional, organism-based.
Data set [14] shares this test system. In words: Phytotoxicity in Linaria genistifolia subsp. dalmatica assessed as inhibition of shoot differentiation at 250 ug/mL measured on day 14 relative to untreated control. The format is functional, organism-based.
For data set [15], the system named is Centaurea diffusa. In words: Phytotoxicity in Centaurea diffusa assessed as inhibition of shoot differentiation at 250 ug/mL measured on day 14 relative to untreated control. The format is functional, organism-based.
The test system of data set [16] is Centaurea maculosa. Description: Phytotoxicity in Centaurea maculosa assessed as inhibition of root differentiation at 250 ug/mL measured on day 14 relative to untreated control. The format is functional, organism-based.
For data set [17], the system named is Bassia scoparia. In words: Phytotoxicity in Bassia scoparia assessed as inhibition of shoot differentiation at 250 ug/mL measured on day 14 relative to untreated control. The format is functional, organism-based.
Data set [18] has as its system Bassia scoparia. Description: Phytotoxicity in Bassia scoparia assessed as inhibition of root differentiation at 250 ug/mL measured on day 14 relative to untreated control. Type of data set: functional, organism-based.
In data set [19] the test system is Centaurea diffusa. In words: Phytotoxicity in Centaurea diffusa assessed as inhibition of root differentiation at 250 ug/mL measured on day 14 relative to untreated control. The format is functional, organism-based.
In data set [20] the test system is Centaurea diffusa. In words: Phytotoxicity in Centaurea diffusa assessed as increase in mortality at 50 ug/mL measured on day 14 relative to untreated control. Type of data set: functional, organism-based.
Data set [21] deals with Bassia scoparia. Description: Phytotoxicity in Bassia scoparia assessed as inhibition of seed germination at 50 ug/mL measured on day 14 relative to untreated control. The format is functional, organism-based.
For data set [22], the system named is Solanum lycopersicum. In words: Phytotoxicity in Solanum lycopersicum (tomato) assessed as increase in mortality at 50 ug/mL measured on day 14 relative to untreated control. The format is organism-based. As to conditions: in vivo.
Data set [23] has as its system Triticum aestivum. In words: Phytotoxicity in Triticum aestivum (wheat) assessed as increase in mortality at 50 ug/mL measured on day 14 relative to untreated control. The format is functional, organism-based.
Data set [24] has as its system Centaurea diffusa. Description: Phytotoxicity in Centaurea diffusa assessed as inhibition of seed germination at 50 ug/mL measured on day 14 relative to untreated control. Type of data set: functional, organism-based.
Data set [25] deals with Linaria genistifolia subsp. dalmatica. In words: Phytotoxicity in Linaria genistifolia subsp. dalmatica assessed as increase in mortality at 50 ug/mL measured on day 14 relative to untreated control. Type of data set: functional, organism-based.
In data set [26] the test system is Centaurea maculosa. Description: Phytotoxicity in Centaurea maculosa assessed as increase in mortality at 50 ug/mL measured on day 14 relative to untreated control. The format is functional, organism-based.
For data set [27], the system named is Bassia scoparia. Description: Phytotoxicity in Bassia scoparia assessed as increase in mortality at 50 ug/mL measured on day 14 relative to untreated control. Type of data set: functional, organism-based.
The test system of data set [28] is Triticum aestivum. Description: Phytotoxicity in Triticum aestivum (wheat) assessed as inhibition of seed germination at 50 ug/mL measured on day 14 relative to untreated control. The format is functional, organism-based.
The subject of data set [29] is Centaurea maculosa. Description: Phytotoxicity in Centaurea maculosa assessed as inhibition of seed germination at 50 ug/mL measured on day 14 relative to untreated control. Type of data set: functional, organism-based.
Data set [30] relates to Linaria genistifolia subsp. dalmatica. In words: Phytotoxicity in Linaria genistifolia subsp. dalmatica assessed as inhibition of seed germination at 50 ug/mL measured on day 14 relative to untreated control. Type of data set: functional, organism-based.

SMILES strings stand for the structures. Active and inactive are the calls of the source. The calls are words filed in the database; no cut-off is given here.

For `O=C1c2c(O)cc(O)cc2OC(c2ccc(O)c(O)c2)C1O` (racemic) [TAXIFOLIN], the “inhibition (INH)” value with Arabidopsis thaliana, in the data set on Triticum aestivum [1] and in the data set with Solanum lycopersicum [8] was “Toxic” each time. In addition, the inhibition result (in [2]; in the data set with Bassia scoparia [3]; in the data set on Centaurea diffusa [4]; in the data set on Bassia scoparia [6]; with Centaurea diffusa [7]; with Triticum aestivum [9]) was “Active” in each case. In addition, the inhibition entry in [11] was “Active”. Also, the inhibition result in the data set with Centaurea maculosa [5] and with Centaurea maculosa [10] was “inactive” in each case.

For `Oc1cc(O)c2c(c1)O[C@@H](c1ccc(O)c(O)c1)[C@@H](O)C2` [(+)-EPICATECHIN], the inhibition result (with Centaurea maculosa [12]; in [13]; in data set [14]; in [2]; in the data set with Centaurea diffusa [15]; in the data set on Centaurea maculosa [16]) was “Active” in each case. The inhibition result with Bassia scoparia [3], in the data set on Centaurea diffusa [4], in the data set on Bassia scoparia [17], in the data set with Bassia scoparia [18], with Centaurea maculosa [10] and in the data set on Centaurea diffusa [19] was “Active” throughout. Also, the “inhibition (INH)” value in the data set on Triticum aestivum [1] is “Toxic”.

`Oc1cc(O)c2c(c1)O[C@@H](c1ccc(O)c(O)c1)[C@H](O)C2` [(-)-CATECHIN]: the inhibition entry (in the data set with Centaurea diffusa [20]; with Bassia scoparia [21]; with Triticum aestivum [23]; in the data set on Centaurea diffusa [24]; in data set [25]; with Bassia scoparia [27]) was “Active” in each case. The inhibition result (in the data set with Triticum aestivum [28]; in data set [30]) was “Active” in each case. In addition, in the data set with Solanum lycopersicum [22], the “inhibition (INH)” value was “Toxic”. Besides, the inhibition entry in the data set on Centaurea maculosa [26] and with Centaurea maculosa [29] was “inactive” in each case.

`Oc1cc(O)c2c(c1)O[C@H](c1ccc(O)c(O)c1)[C@H](O)C2` [(-)-EPICATECHIN]: the inhibition entry (in the data set with Centaurea maculosa [12]; in [13]; in data set [14]; in data set [2]; in the data set with Centaurea diffusa [15]; in the data set with Centaurea maculosa [16]) was “inactive” in each case. Also, the inhibition entry in the data set on Bassia scoparia [3], in the data set with Centaurea diffusa [4], in the data set with Bassia scoparia [17], in the data set on Bassia scoparia [18], in the data set with Centaurea maculosa [10] and in the data set on Centaurea diffusa [19] was “inactive” in each case. In addition, the “inhibition (INH)” value with Triticum aestivum [1] is recorded as “Non-toxic”.

As to `O=c1c(O)c(-c2ccc(O)cc2)oc2cc(O)cc(O)c12` [KAEMPFEROL], the “inhibition (INH)” value in the data set with Arabidopsis thaliana, with Triticum aestivum [1] and in the data set with Solanum lycopersicum [8] was “Toxic” in each case. Also, the inhibition entry (in [2]; with Bassia scoparia [3]; in the data set with Centaurea diffusa [4]; in the data set on Bassia scoparia [6]; in the data set on Centaurea diffusa [7]; in the data set on Triticum aestivum [9]) was “Active” throughout. For the same compound, the inhibition result in data set [11] was “Active”. For the same compound, the inhibition result in the data set on Centaurea maculosa [5] and with Centaurea maculosa [10] was “inactive” throughout.

With `O=C1C[C@@H](c2ccc(O)cc2)Oc2cc(O)cc(O)c21` [NARINGENIN], the inhibition result (in the data set on Centaurea maculosa [12]; in data set [13]; in data set [14]; in data set [2]; in the data set with Centaurea diffusa [15]; in the data set on Centaurea maculosa [16]) was “inactive” throughout. Besides, the inhibition result with Bassia scoparia [3], with Centaurea diffusa [4], with Bassia scoparia [17], in the data set on Bassia scoparia [18], with Centaurea maculosa [10] and in the data set on Centaurea diffusa [19] was “inactive” in each case. Also, the “inhibition (INH)” value in the data set with Triticum aestivum [1] is given as “Non-toxic”.

For the compound `O=c1c(O)c(-c2ccc(O)c(O)c2)oc2cc(O)cc(O)c12` [QUERCETIN], the inhibition entry (in the data set on Centaurea maculosa [12]; in data set [13]; in data set [14]; in [2]; in the data set on Centaurea diffusa [15]; in the data set with Centaurea maculosa [16]) was “inactive” each time. Also, the inhibition entry in the data set with Bassia scoparia [3], in the data set with Centaurea diffusa [4], in the data set with Bassia scoparia [17], in the data set on Bassia scoparia [18], in the data set with Centaurea maculosa [10] and in the data set with Centaurea diffusa [19] was “inactive” throughout. The “inhibition (INH)” value with Triticum aestivum [1] was “Non-toxic”.
